Assay results taken from patent US8987239B2, “19-nor-steroid derivatives with a 15α,16α-methylene group and a saturated 17,17-spirolactone ring, use thereof, and medicaments containing said derivatives” (Bayer Intellectual Property GmbH, priority 2007, dated 2015).
Like-named read-outs stand apart in the source and are kept apart here.

Columns and labels:
progesterone receptor [1] = molecular target: T1, progesterone receptor (Homo sapiens (Human), UniProt P06401); assay: Progestational action by transactivation test (CHO K1 reporter cells, luciferase); type: cell-based; details: for Emax: read-out: In vitro Transactivation Progesterone receptor Agonisten Efficacy
Protocol: 4. Determination of Progestational Action by Means of Transactivation Tests:
The test compounds were added eight hours later, and the cells were incubated with the compounds for 16 hours. The tests were carried out in triplicate. At the end of incubation the medium containing the effector was removed and replaced with lysis buffer. After luciferase assay substrate (Promega, #E1501) had been added, the 96-well plates were then put in a microplate luminometer (Pherastar, BMG labtech), and the luminescence was measured. The IC50 values were evaluated using software for calculating dose-effect relations.
Target sequence in this assay (P06401 679-913, species assumed): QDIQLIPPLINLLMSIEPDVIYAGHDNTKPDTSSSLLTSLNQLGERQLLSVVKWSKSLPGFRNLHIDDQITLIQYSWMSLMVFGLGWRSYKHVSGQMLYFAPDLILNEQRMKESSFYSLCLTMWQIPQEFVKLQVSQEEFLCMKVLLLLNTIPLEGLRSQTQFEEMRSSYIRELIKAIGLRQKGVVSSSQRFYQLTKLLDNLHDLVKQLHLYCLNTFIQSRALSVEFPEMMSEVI

progesterone receptor [2] = molecular target: T1, progesterone receptor; assay: Progesterone receptor binding test (displacement of 3H-progesterone); details: for Receptor binding Progesterone receptor Competition factor: CF relative to progesterone (=1), CF <1 means higher affinity; for CF PR/CF MR: ratio of competition factors, progesterone receptor to mineralocorticoid receptor; for IC50: read-out: Receptor binding Progesterone receptor IC50, cytosol from PR-expressing insect cells (Hi5), 3H-progesterone
Target sequence in this assay (P06401 whole entry, species assumed): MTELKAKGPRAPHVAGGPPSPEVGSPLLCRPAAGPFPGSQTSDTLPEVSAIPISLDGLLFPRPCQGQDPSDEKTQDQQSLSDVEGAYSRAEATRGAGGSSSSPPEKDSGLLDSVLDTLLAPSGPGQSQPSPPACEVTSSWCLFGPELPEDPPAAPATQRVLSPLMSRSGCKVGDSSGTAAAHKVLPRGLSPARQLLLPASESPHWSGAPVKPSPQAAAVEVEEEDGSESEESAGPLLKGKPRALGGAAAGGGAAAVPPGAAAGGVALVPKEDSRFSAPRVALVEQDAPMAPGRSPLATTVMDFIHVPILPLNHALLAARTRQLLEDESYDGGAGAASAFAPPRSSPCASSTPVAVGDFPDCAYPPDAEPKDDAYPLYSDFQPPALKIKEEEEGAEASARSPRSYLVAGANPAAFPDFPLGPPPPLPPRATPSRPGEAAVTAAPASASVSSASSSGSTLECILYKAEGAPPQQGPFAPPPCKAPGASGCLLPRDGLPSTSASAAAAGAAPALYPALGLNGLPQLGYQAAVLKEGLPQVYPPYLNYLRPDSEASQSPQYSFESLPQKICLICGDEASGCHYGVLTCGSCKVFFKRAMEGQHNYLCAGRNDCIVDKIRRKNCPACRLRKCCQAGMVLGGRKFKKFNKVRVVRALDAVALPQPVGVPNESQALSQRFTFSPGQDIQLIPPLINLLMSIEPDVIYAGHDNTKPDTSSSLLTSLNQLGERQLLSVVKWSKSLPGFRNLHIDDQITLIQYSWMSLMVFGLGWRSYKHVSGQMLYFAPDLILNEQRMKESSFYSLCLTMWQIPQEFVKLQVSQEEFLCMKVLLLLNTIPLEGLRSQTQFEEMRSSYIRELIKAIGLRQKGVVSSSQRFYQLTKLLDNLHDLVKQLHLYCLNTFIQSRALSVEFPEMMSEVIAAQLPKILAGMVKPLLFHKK
Protocol: Progesterone Receptor Binding Test:
Using cytosol from progesterone receptor-expressing insect cells (Hi5), competitive binding to the progesterone receptor was determined from the ability to displace ^3H-progesterone as reference substance from the receptor.

[3] = molecular target: mineralocorticoid receptor (Homo sapiens (Human), UniProt P08235); assay: Mineralocorticoid receptor binding test (displacement of 3H-aldosterone); details: cytosol from MR-expressing insect cells (Hi5), reference 3H-aldosterone
Excerpt: 2. Mineralocorticoid Receptor Binding Test:

androgen receptor = androgen receptor (Homo sapiens (Human), UniProt P10275); assay: Androgen receptor binding test (displacement of 3H-testosterone); details: cytosol from AR-expressing insect cells (Hi5); for Receptor binding Androgen receptor Competition factor: reference 3H-testosterone; for IC50: read-out: Receptor binding Androgen receptor IC50, 3H-testosterone
Protocol: Androgen Receptor Binding Test:
The test was carried out as in 1, with the following modifications: cytosol from androgen receptor-expressing insect cells (Hi5) was used, and the reference substance was ^3H-testosterone.

[4] = CHO K1 PR-LBD/Gal4 luciferase reporter cells, 16 hours incubation, read-out: In vitro Transactivation Progesterone receptor Agonisten EC50
[5] = CHO K1 PR-LBD/Gal4 luciferase reporter cells, 16 hours incubation

Sequence of androgen receptor (P10275 whole entry, species assumed, the tested form may be a part): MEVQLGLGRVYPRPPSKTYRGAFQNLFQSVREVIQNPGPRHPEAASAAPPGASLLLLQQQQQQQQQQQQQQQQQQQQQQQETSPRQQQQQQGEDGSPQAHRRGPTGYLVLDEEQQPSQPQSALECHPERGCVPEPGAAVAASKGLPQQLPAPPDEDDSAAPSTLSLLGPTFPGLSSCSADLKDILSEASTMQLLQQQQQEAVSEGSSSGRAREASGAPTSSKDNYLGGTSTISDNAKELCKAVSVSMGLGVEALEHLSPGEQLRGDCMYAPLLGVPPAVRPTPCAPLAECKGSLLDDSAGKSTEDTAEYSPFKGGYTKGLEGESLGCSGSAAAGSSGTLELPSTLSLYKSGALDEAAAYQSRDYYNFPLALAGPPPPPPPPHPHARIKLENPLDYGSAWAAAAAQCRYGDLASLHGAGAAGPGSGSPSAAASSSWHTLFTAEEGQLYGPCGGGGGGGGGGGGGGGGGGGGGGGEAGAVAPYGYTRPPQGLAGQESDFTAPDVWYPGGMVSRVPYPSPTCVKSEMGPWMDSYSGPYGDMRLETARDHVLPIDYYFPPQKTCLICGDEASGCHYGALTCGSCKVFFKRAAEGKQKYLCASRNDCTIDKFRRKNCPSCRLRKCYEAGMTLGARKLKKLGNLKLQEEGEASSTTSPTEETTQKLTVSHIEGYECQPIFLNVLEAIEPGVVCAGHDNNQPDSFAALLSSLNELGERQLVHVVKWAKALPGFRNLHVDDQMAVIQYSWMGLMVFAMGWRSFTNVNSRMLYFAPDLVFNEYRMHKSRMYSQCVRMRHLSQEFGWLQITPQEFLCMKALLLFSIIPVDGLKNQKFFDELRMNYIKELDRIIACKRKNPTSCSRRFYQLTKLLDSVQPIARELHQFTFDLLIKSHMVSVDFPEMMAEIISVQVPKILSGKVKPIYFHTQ
Sequence of mineralocorticoid receptor (P08235 whole entry, species assumed): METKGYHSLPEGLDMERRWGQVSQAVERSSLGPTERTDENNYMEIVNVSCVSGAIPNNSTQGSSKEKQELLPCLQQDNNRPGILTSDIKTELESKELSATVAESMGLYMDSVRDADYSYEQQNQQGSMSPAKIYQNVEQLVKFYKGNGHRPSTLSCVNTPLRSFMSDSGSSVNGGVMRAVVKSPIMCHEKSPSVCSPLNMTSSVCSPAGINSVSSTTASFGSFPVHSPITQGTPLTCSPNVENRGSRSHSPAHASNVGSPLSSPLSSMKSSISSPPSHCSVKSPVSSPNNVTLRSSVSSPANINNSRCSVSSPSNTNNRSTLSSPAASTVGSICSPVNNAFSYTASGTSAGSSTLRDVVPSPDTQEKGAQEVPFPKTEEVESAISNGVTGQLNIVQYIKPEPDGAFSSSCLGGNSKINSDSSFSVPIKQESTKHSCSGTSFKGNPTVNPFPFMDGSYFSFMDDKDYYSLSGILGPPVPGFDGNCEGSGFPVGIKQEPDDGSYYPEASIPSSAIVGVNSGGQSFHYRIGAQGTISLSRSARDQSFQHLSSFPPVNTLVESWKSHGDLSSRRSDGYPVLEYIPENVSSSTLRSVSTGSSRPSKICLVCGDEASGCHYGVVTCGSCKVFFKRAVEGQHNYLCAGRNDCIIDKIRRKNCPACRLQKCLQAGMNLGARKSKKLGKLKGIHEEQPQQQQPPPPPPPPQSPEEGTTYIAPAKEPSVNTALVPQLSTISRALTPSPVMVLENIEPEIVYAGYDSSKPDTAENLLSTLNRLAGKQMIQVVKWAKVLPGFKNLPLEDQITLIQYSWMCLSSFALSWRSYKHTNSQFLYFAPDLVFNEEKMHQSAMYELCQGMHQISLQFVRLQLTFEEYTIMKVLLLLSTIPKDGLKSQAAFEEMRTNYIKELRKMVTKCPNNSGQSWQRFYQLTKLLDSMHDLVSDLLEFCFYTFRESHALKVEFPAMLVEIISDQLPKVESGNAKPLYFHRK

Structure (SMILES) | EC50 (progesterone receptor [1]; [4]) [nM] | Emax (progesterone receptor [1]; CHO-K1, 16 h) [%] | Emax (progesterone receptor [1]; [5]) [%] | Receptor binding Progesterone receptor Competition factor (progesterone receptor [2]) | Receptor binding Mineralocorticoid receptor Competition factor [3] | Receptor binding Androgen receptor Competition factor (androgen receptor) | IC50 (androgen receptor) [nM] | EC50 (progesterone receptor [1]) [nM] | CF PR/CF MR (progesterone receptor [2]) | IC50 (progesterone receptor [2]) [nM]
C[C@]12CCC3C4CCC(=O)C=C4[C@@H]4C[C@@H]4C3C1C1CC1[C@@]21CCC(=O)O1 (stereo in doubt) [compound 9] | 1 | 77.4 |  |  |  |  |  |  |  | 
C[C@]12CCC(=O)C=C1[C@@H]1C[C@@H]1[C@H]1[C@@H]3[C@@H]4C[C@@H]4[C@@]4(CCC(=O)O4)[C@@]3(C)CC[C@@H]12 [A, 6β,7β-15β,16β-dimethylene-3-oxo-17-pregn-4-ene-21,17β-carbolactone, reference compound] |  |  | 72.2 | 2.7 | 0.5 |  |  |  |  | 
C[C@]12CCC3C4CCC(=O)C=C4CCC3C1C1CC1[C@@]21CCC(=O)O1 (stereo partly drawn) [Example 1, 17β-Hydroxy-15α,16α-methylene-19-nor-17α-pregna-4-en-3-one-21-carboxylic acid γ-lactone] |  | 55.9 |  |  | 1.8 | 110.0 | 6 |  |  | 
CC1CC2=CC(=O)CCC2C2CC[C@@]3(C)C(C4CC4[C@@]34CCC(=O)O4)C12 (stereo partly drawn) [Example 3, 17β-Hydroxy-7α-methyl-15α,16α-methylene-19-nor-17α-pregna-4-en-3-one-21-carboxylicacid γ-lactone] |  | 87 |  |  | 1.3 | 2.8 | 61 |  |  | 
CCC1CC2=CC(=O)CCC2C2CC[C@@]3(C)C(C4CC4[C@@]34CCC(=O)O4)C12 (stereo partly drawn) [Example 4, 17β-Hydroxy-7α-ethyl-15α,16α-methylene-19-nor-17α-pregna-4-en-3-one-21-carboxylic acid γ-lactone] |  | 56.7 |  | 1.74 | 1.2 | 5.6 | 74 | 0.7 | 1.45 | 33
C=CC1CC2=CC(=O)CCC2C2CC[C@@]3(C)C(C4CC4[C@@]34CCC(=O)O4)C12 (stereo partly drawn) [Example 5, 17β-Hydroxy-7α-vinyl-15α,16α-methylene-19-nor-17α-pregna-4-en-3-one-21-carboxylic acid γ-lactone] |  | 66.1 |  | 1.16 | 1.4 | 3.0 | 55 | 3.4 | 0.83 | 15
C[C@]12CCC3C4CCC(=O)C=C4CC(C4CC4)C3C1C1CC1[C@@]21CCC(=O)O1 (stereo partly drawn) [Example 6, 17β-Hydroxy-7α-cyclopropyl-15α,16α-methylene-19-nor-17α-pregna-4-en-3-one-21-carboxylic acid γ-lactone] |  | 48.6 |  | 2.65 | 1.6 | 6.3 | 78 | 1 | 1.66 | 51
C[C@]12CCC3C4CCC(=O)C=C4[C@H](CO)CC3C1C1CC1[C@@]21CCC(=O)O1 (stereo partly drawn) [Example 7, 17β-Hydroxy-6β-hydroxymethyl-15α,16α-methylene-19-nor-17α-pregna-4-en-3-one-21-carboxylic acid γ-lactone] | 910 |  | 22.8 | 49.90 | 2.1 | 1000.0 | 10000 |  | 23.76 | 1100
C[C@]12CCC3C4CCC(=O)C=C4C4(CC4)CC3C1C1CC1[C@@]21CCC(=O)O1 (stereo partly drawn) [Example 8, 6,6-(1,2-Ethanediyl)-17β-hydroxy-15α,16α-methylene-19-nor-17α-pregna-4-en-3-one-21-carboxylic acid γ-lactone] |  | 69.7 |  | 0.71 | 0.9 | 1.4 | 26 | 0.1 | 0.79 | 8.9
C[C@]12CCC3C4CCC(=O)C=C4C4CC4C3C1C1CC1[C@@]21CCC(=O)O1 (stereo partly drawn) [Example 9 (B), 17β-hydroxy-6α,7α-15α,16α-bismethylene-19-nor-17α-pregna-4-en-3-one-21-carboxylic acid γ-lactone] |  |  | 107 |  |  |  |  |  |  | 
